Measurements reported in publication PMC12811997 (Chemmedchem, 2025).
Converted amounts (≈) assume the structure as drawn. Where two headings read alike, the source gives them in different places.

What was measured:
[1] = target: T1, SARS‐CoV‐2 RdRp complex (nsp12, nsp7, nsp8) (Severe acute respiratory syndrome coronavirus 2, UniProt P0DTD1); set-up: method as in PMID 39140451; conditions: at 10 μM concentration of screened compound; ref [10]; cited from earlier work
SARS‐CoV‐2 = assay: microbe, parasite or virus in culture; format: cell-based
[2] = Chemical stability in aqueous solution; format: physicochemical
Kinetic solubility = conditions: for solubility kinetic: kinetic from dmso stock
[3] = target: T1, SARS‐CoV‐2 RdRp complex (nsp12, nsp7, nsp8); assay: biochemical; format: biochemical; conditions: AUC with compound / AUC of noninhibited reaction; for remaining activity at 10 µM: read-out: RA ± SD (residual activity of RdRp), at 10 μM concentration of screened compounds
in vitro = conditions: human
Description: (§1) Cytotoxicity was evaluated by incubating the same two‐fold serial dilutions of each compound with Calu‐3 cells as above but without the virus. Following 3 days of incubation at 37 °C in 5% CO2, the cell viability was determined by the addition of XTT solution as above. The compound cytotoxic concentrations resulting in a 50% reduction of absorbance (CC50) were calculated from plots of the percentage of absorbance versus log10 of drug concentration as above.

Calu‐3 cells = conditions: read-out: CC50 ± SE, concentration required to reduce cell viability by 50%
Description: as §1

[4] = Severe acute respiratory syndrome coronavirus 2, Calu‐3 cells infected with SARS‐CoV‐2, concentration required to reduce viral cytopathic effect by 50%, read-out: EC50

O=C(Nc1cc(Cl)cc(Cl)c1)Nc1cccc(C(F)(F)F)c1 [Compound 1, 1‐(3,5‐dichlorophenyl)‐3‐(3‐(trifluoromethyl)phenyl)urea]
RA (residual activity of RdRp) [1]: 45%

FC(F)(F)c1ccc2nc(-c3nc4cc(Cl)c(Cl)cc4[nH]3)[nH]c2c1 [Compound 2]
RA (residual activity of RdRp) [1]: 43 ± 6%

O=C(Nc1cccc(C(F)(F)F)c1)Nc1nc2cc(Cl)c(Cl)cc2[nH]1 [Compound 3]
RA (residual activity of RdRp) [1]: 49 ± 6%

O=C(Nc1cc(Cl)cc(Cl)c1)Nc1nc2ccc(C(F)(F)F)cc2[nH]1 [Compound 4]
RA (residual activity of RdRp) [1]: 29 ± 2%

O=C(Nc1cc(Cl)cc(Cl)c1)Nc1ccc(CN2CCOC(=O)C2)c(C(F)(F)F)c1 [Compound 64, 1‐(3,5‐Dichlorophenyl)‐3‐(4‐((2‐Oxomorpholino)Methyl)‐3‐(Trifluoromethyl)Phenyl)Urea]
EC50 (SARS‐CoV‐2; [4]): > 38 µM | chemical stability [2]: chemically unstable and underwent rapid hydrolysis in aqueous solution | solubility kinetic (Kinetic solubility): 21 ± 2 µM (≈ 9.71 µg/mL) | increase in kinetic solubility compared with compound 39 (Kinetic solubility; relative to compound 39): 5 fold | remaining activity at 10 µM [3]: 39 ± 12% | CC50 at 3 days (in vitro): 38 ± 8.2 µM

Cl.O=C(Nc1cc(Cl)cc(Cl)c1)Nc1ccc(CN2CCS(=O)(=O)CC2)c(C(F)(F)F)c1 [Compound 68, 1‐(3,5‐Dichlorophenyl)‐3‐(4‐((1,1‐Dioxidothiomorpholino)Methyl)‐3‐(Trifluoromethyl)Phenyl)Urea Hydrochloride]
EC50 (SARS‐CoV‐2; [4]): > 5.9 µM | solubility kinetic (Kinetic solubility): 2.57 ± 0.04 µM | remaining activity at 10 µM [3]: 37 ± 5% | CC50 at 3 days (in vitro): 5.9 ± 0.51 µM

COC(=O)C1CN(Cc2ccc(NC(=O)Nc3cc(Cl)cc(Cl)c3)cc2C(F)(F)F)CCO1.Cl (stereo not shown) [Compound 69, Methyl 4‐(4‐(3‐(3,5‐Dichlorophenyl)Ureido)‐2‐(Trifluoromethyl)Benzyl)Morpholine‐2‐Carboxylate Hydrochloride]
EC50 (SARS‐CoV‐2; [4]): > 34 µM | solubility kinetic (Kinetic solubility): < 2 µM | remaining activity at 10 µM [3]: 42 ± 4% | CC50 at 3 days (in vitro): 34 ± 5.6 µM

Cl.O=C1CN(Cc2ccc(NC(=O)Nc3cc(Cl)cc(Cl)c3)cc2C(F)(F)F)CCN1 [Compound 70, 1‐(3,5‐Dichlorophenyl)‐3‐(4‐((3‐Oxopiperazin‐1‐Yl)Methyl)‐3‐(Trifluoromethyl)Phenyl)Urea Hydrochloride]
EC50 (SARS‐CoV‐2; [4]): > 9.5 µM | solubility kinetic (Kinetic solubility): 11.2 ± 0.07 µM | remaining activity at 10 µM [3]: 63 ± 7% | CC50 at 3 days (in vitro): 9.5 ± 0.28 µM

O=C(Nc1cc(Cl)cc(Cl)c1)Nc1ccc(CN2CCOC(C(=O)[O-])C2)c(C(F)(F)F)c1.[Li+] (stereo not shown) [Compound 71, Lithium 4‐(4‐(3‐(3,5‐Dichlorophenyl)Ureido)‐2‐(Trifluoromethyl)Benzyl)Morpholine‐2‐Carboxylate]
EC50 (SARS‐CoV‐2; Severe acute respiratory syndrome coronavirus 2, Calu-3): > 32 µM | kinetic solubility (Kinetic solubility; as restated in Conclusions): 71 µM L^−1 | solubility kinetic (Kinetic solubility): 71 ± 1 µM | remaining activity at 10 µM [3]: ~65% | CC50 at 3 days (in vitro): 32 ± 0.77 µM

Cl.NC(=O)C1CN(Cc2ccc(NC(=O)Nc3cc(Cl)cc(Cl)c3)cc2C(F)(F)F)CCO1 (stereo not shown) [Compound 72, 4‐(4‐(3‐(3,5‐Dichlorophenyl)Ureido)‐2‐(Trifluoromethyl)Benzyl)Morpholine‐2‐Carboxamide Hydrochloride]
EC50 (SARS‐CoV‐2; [4]): > 12 µM | solubility kinetic (Kinetic solubility): 4.7 ± 0.1 µM | remaining activity at 10 µM [3]: 52 ± 5% | CC50 at 3 days (in vitro): 12 ± 0.51 µM

Ethyl 1‐(4‐(3‐(3,5‐Dichlorophenyl)Ureido)‐2‐(Trifluoromethyl)Benzyl)Piperidine‐4‐Carboxylate Hydrochloride [Compound 67]
EC50 (SARS‐CoV‐2; Calu‐3 cells infected with SARS‐CoV‐2, concentration required to reduce viral cytopathic effect by 50%, read-out: EC50): > 9 µM | RA ± SD (residual activity of RdRp) ([3]; at 10 μM concentration of screened compounds): 51 ± 11% | CC50 (Calu‐3 cells): 9 ± 0.38 µM
